Marks after values point to notes of the source that are not given here.

One assay deals with MCF-7 wt cells. The experiment in a line: Single-cell fura-2 [Ca2+]i imaging, MCF-7 wt drug-sensitive cells. Format: cell-based, human. To be noted: for Fold [Ca2+]i increase evoked by agonist: mean ± S.E.M.
The test system of a further assay is MDA-MB-231 cells. The assay can be described thus: Single-cell fura-2 [Ca2+]i imaging, MDA-MB-231 wt cells. Particulars: for Fold [Ca2+]i increase evoked by agonist: mean ± S.E.M. The format is cell-based, human. The source says: (§1) More specifically, human breast cancer cell (“bc”) lines were obtained from the following sources: wild type (“wt”), estrogen receptor-positive MCF-7 cells were obtained from three different sources: American Type Culture Collection (ATCC, Manassas, Va.), the Lombardi Cancer Center, Georgetown University (Washington, D.C.) and the National Cancer Institute, NIH (Bethesda, Md.) and will be referred to as “wt”, DS MCF-7 throughout the paper. Wild type, estrogen receptor-negative MDA-MB-231 cells were obtained from the Lombardi Cancer Center, Georgetown University. Five DR, MCF-7-derived clonal cell lines were used in this study. MCF-7/ADR (selected by exposure and resistance to adriamycin, a DNA intercalating agent and DNA topoisomerase II inhibitor; (Vickers, P. J. et al. Mol. Endocrinol. 2:886-892, 1988) were from the Lombardi Cancer Center, Georgetown University; MCF-7/C4 (selected, after mutagenesis, for resistance to camptothecin, a DNA topoisomerase I inhibitor) were obtained from Dr. Y. Pommier (NCI, NIH, Bethesda, Md.) (Fujimori, A. et al. Mol. Pharmacol. 50:1472-1478, 1996); MCF-7/VP cells (selected by exposure and resistance to VP-16 etoposide, a DNA topoisomerase II inhibitor; Schneider, E. et al. Cancer Res. 54:152-158, 1994) were obtained from Dr. E. Schneider, Wadsworth Center, New York State Dept. of Health, Albany, N.Y.; MCF-7/Melph cells (selected by exposure and resistance to melphalan, a DNA alkylating agent; Moscow, J A et al. Br. J. Cancer 68:732-737, 1993) were obtained from Dr. J. Moscow, University of Kentucky, Lexington, Ky.
(§2) For data mentioned below, [Ca^2+]1 was measured by single-cell fura-2 excitation ratio imaging as previously described (DeBernardi, M. A. et al. Mol Pharmacol 43:451-58, 1993). Cells, grown on 25 mm round, 1 mm-thick glass coverslips were loaded with cell-permeable fura-2 AM (5 uM; Molecular Probes, Eugene, Oreg.) at 37° C. in growth medium for 30-60 min. MCF-7/ADR, MCF-7/Ad-Vp, and C6-B and E cells were difficult to load with fura-2 AM, likely reflecting a high degree of dye extrusion (Homolya, L. et al. J Biol. Chem. 268:21493-96, 1993). […] Cells were then thoroughly washed with buffer H/H (Ham's F-10 nutrient mixture supplemented with 20 mM Na-HEPES, pH 7.4) and let sit for 10 min at room temperature to allow complete fura-2 AM de-esterification. Cells were imaged at room temperature in H/H buffer using an Attofluor RatioVision Digital Fluorescence Microscopy System (Atto Bioscience, Rockville, Md.) equipped with a Zeiss Axiovert 135 microscope and a F-Fluar 40×, 1.3 na, oil-immersion objective. Fura-2 was excited at 334 and 380 nm with the emission monitored at >510 nm; the 334/380 nm excitation ratio increases as a function of the [Ca^2+]1. Calibration was done in vitro with 10 uM fura-2 pentapotassium salt in the presence of 1 mM CaCl2 or 1 mM EGTA and the 334/380 nm excitation ratio was converted to [Ca^2+]1 nM values (Grynkiewicz et al J Biol Chem 260:3440-3450, 1985). For each coverslip, 10-99 cells were simultaneously imaged in a given microscopic field and [Ca^2+]1 was recorded from each individual cell in resting and stimulated conditions. Single Ca^2+ profiles were averaged to yield [Ca^2+]1 population means (±S.E.M.) that were plotted versus time. […]
(§3) Single cell Ca^2+ dynamics were monitored by single cell fluorescence digital imaging according to the method previously described by DeBernardi, M. A. et al. Mol Phamacol 43: 451-458 (1993). […]

In the next assay the test system is MCF-7/ADR cells. The assay can be described thus: Single-cell fura-2 [Ca2+]i imaging, MCF-7/ADR drug-resistant cells. Format: cell-based, human. To be noted: for Fold [Ca2+]i increase evoked by agonist: mean ± S.E.M.
A further assay concerns MCF-7/AdVp cells. The assay can be described thus: Single-cell fura-2 [Ca2+]i imaging, MCF-7/Ad-Vp drug-resistant cells. Format: cell-based, human. Particulars: mean ± S.E.M.
The next assay concerns MCF-7/VP cells. The experiment in a line: Single-cell fura-2 [Ca2+]i imaging, MCF-7/VP drug-resistant cells. The format is cell-based, human. To be noted: mean ± S.E.M.
For a further assay, the system named is MCF-7/C4 cells. The experiment in a line: Single-cell fura-2 [Ca2+]i imaging, MCF-7/C4 drug-resistant cells. Format: cell-based, human. Particulars: for Fold [Ca2+]i increase evoked by agonist: mean ± S.E.M.
Source text: as §1, §2, §3

In the next assay the test system is MCF-7/Melph cells. The assay can be described thus: Single-cell fura-2 [Ca2+]i imaging, MCF-7/Melph drug-resistant cells. The format is cell-based, human. Particulars: mean ± S.E.M.
The subject of assay [1] is human breast cancer cells (DS and DR). The assay can be described thus: Single-cell fura-2 [Ca2+]i imaging, DS and DR human breast cancer cells (statements across lines). Particulars: for Effect on decay kinetics of ATP-evoked response: 2 or 24 hr, VER/CSA in wt or MCF-7/ADR, GEN/PRO in wt or MCF-7/VP; for Effect of acute pre-treatment on ATP-induced [Ca2+]i responses: 10 min pre-treatment, VER 25 uM, CSA 10 uM, GEN 100 uM, PRO 2 mM. Format: cell-based.
Description: (§6) Cells, grown on 25 mm round, 1 mm-thick glass coverslips were loaded with cell-permeable fura-2 AM (5 uM; Molecular Probes, Eugene, Oreg.) at 37° C. in growth medium for 30-60 min. […] Cells were then thoroughly washed with buffer H/H (Ham's F-10 nutrient mixture supplemented with 20 mM Na-HEPES, pH 7.4) and let sit for 10 min at room temperature to allow complete fura-2 AM de-esterification. […] For each coverslip, 10-99 cells were simultaneously imaged in a given microscopic field and [Ca^2+]1 was recorded from each individual cell in resting and stimulated conditions. Single Ca^2+ profiles were averaged to yield [Ca^2+]1 population means (±S.E.M.) that were plotted versus time.
(§7) Cells were grown as monolayers on glass supports and labeled with the cell-permeable fluorescent dye, Fura-2 (Molecular Probes, Inc.).
(§8) Basal [Ca^2+]1 levels and responses to ATP (50-100 uM), UTP (50-100 uM), BK (10 uM), THR (5 uM), or TG (1 uM) were studied in single cells. […] Ca^2+ responses were compared between pairs of DS and DR clones tested in parallel (MCF-7/ADR cells were compared to their parental wt, DS line obtained from Georgetown University; MCF-7/Ad-Vp cells were compared to the NIH wt, DS line; other DR clones were compared mainly with wt, DS MCF-7 cells from ATCC; C6 clones resistant to doxorubicin were compared to their wild type parental line.
Human breast cancer cells loaded with Fura-2, were exposed to various agonists and [Ca^2+]1 responses from single cells were recorded.
(§9) DR and DS cells were then exposed to the modulators for 2 or 24 hr and challenged with ATP.

The subject of assay [2] is C6 rat glioblastoma clone A. The experiment in a line: Single-cell fura-2 [Ca2+]i imaging, C6 clone A. The format is cell-based. On the procedure:
(§4) C6 rat glioblastoma cell lines: Wild type cells and progressively doxorubicin-resistant clones were obtained from Dr. J. Robert, Institute Bergonie, Bordeaux, France. Clones were selected by exposure to increasing doses of doxorubicin: Clone A, 0.001 μg/ml; Clone B, 0.1 μg/ml, and Clone E, 0.5 μg/ml.
(§5) For data mentioned below, [Ca^2+]1 was measured by single-cell fura-2 excitation ratio imaging as previously described (DeBernardi, M. A. et al. Mol Pharmacol 43:451-58, 1993). Cells, grown on 25 mm round, 1 mm-thick glass coverslips were loaded with cell-permeable fura-2 AM (5 uM; Molecular Probes, Eugene, Oreg.) at 37° C. in growth medium for 30-60 min. […] Cells were imaged at room temperature in H/H buffer using an Attofluor RatioVision Digital Fluorescence Microscopy System (Atto Bioscience, Rockville, Md.) equipped with a Zeiss Axiovert 135 microscope and a F-Fluar 40×, 1.3 na, oil-immersion objective. Fura-2 was excited at 334 and 380 nm with the emission monitored at >510 nm; the 334/380 nm excitation ratio increases as a function of the [Ca^2+]1. […] For each coverslip, 10-99 cells were simultaneously imaged in a given microscopic field and [Ca^2+]1 was recorded from each individual cell in resting and stimulated conditions. […]

Assay [3] deals with C6 rat glioblastoma clone B. The assay can be described thus: Single-cell fura-2 [Ca2+]i imaging, C6 clone B. Format: cell-based. On the procedure:
as §4, §5

Assay [4] concerns C6 rat glioblastoma clone E. The assay can be described thus: Single-cell fura-2 [Ca2+]i imaging, C6 clone E. The format is cell-based. On the procedure:
as §4, §5

Another assay has as its system C6 DR clones A, B and E. The experiment in a line: Single-cell fura-2 [Ca2+]i imaging, all C6 DR clones. Format: cell-based, rat. Particulars: all the clones. As for the experimental part: as §4, §5
Assay [5] deals with C6 rat astrocytoma clone A. To be noted: cited from earlier work.
In assay [6] the test system is C6 rat astrocytoma clone B. To be noted: cited from earlier work.
Assay [7] deals with C6 rat astrocytoma clone E. To be noted: cited from earlier work.

Source text for MCF-7 wt cells: More specifically, human breast cancer cell (“bc”) lines were obtained from the following sources: wild type (“wt”), estrogen receptor-positive MCF-7 cells were obtained from three different sources: American Type Culture Collection (ATCC, Manassas, Va.), the Lombardi Cancer Center, Georgetown University (Washington, D.C.) and the National Cancer Institute, NIH (Bethesda, Md.) and will be referred to as “wt”, DS MCF-7 throughout the paper. […] Five DR, MCF-7-derived clonal cell lines were used in this study.
as §6, §7, §8
(§10) Cells were labeled with Fura-2 and imaged. After 30-60 sec., the agonists were applied and calcium responses were recorded in single cells. The fold increase in [Ca^2+]1 were calculated and the average values from all the experiments were used in this table.
(§11) Cells were loaded with Fura-2 and imaged in the absence or presence of EGTA, which is a calcium chelator. Cells were challenged with ATP and Ca responses were recorded. The magnitude and decay t1/2 of the responses were calculated and the respective mean of all the experiments was compared.
Description for MCF-7/ADR cells: as §6, §7, §8, §10, §11, §9
Description for MCF-7/AdVp cells: as §6, §7, §8, §10
Description for MCF-7/VP cells: as §6, §7, §8, §10

With `Nc1ncnc2c1ncn2[C@@H]1O[C@H](COP(=O)(O)OP(=O)(O)OP(=O)(O)O)[C@@H](O)[C@H]1O` [ATP], the “ATP-evoked [Ca2+]i, fold increase” value with MCF-7 wt cells (EGTA-containing Buffer) is listed as 6.2 ± 2.1 fold; with MCF-7 wt cells (Standard Buffer) it was 8.1 ± 2.4^b fold; in the assay on MDA-MB-231 cells (EGTA-containing Buffer) it was 26.0 ± 8.1 fold; in the assay with MDA-MB-231 cells (Standard Buffer), 16.5 ± 4.8 fold; in the assay with MCF-7/ADR cells (EGTA-containing Buffer), 2.4 ± 0.3 fold; in the assay on MCF-7/ADR cells (Standard Buffer), 3.7 ± 0.7 fold. For the same compound, the “ATP-evoked [Ca2+]i, fold increase” value turned out to be 4.9 ± 0.4 fold in the assay on MCF-7/C4 cells (EGTA-containing Buffer) and 5.8 ± 0.9 fold in the assay with MCF-7/C4 cells (Standard Buffer). For the same compound, the “Fold [Ca2+]i increase evoked by agonist” value is 7.9 ± 1.8^a (n = 67) fold with MCF-7 wt cells; 16.5 ± 4.8 fold with MDA-MB-231 cells; 2.9 ± 0.7 (n = 25) fold in the assay on MCF-7/ADR cells; 4.5 ± 1.2 (n = 12) fold in the assay with MCF-7/AdVp cells; 4.4 ± 1.2 (n = 11) fold in the assay on MCF-7/VP cells; 5.9 ± 0.8 (n = 12) fold in the assay with MCF-7/C4 cells. In addition, in the assay with MCF-7/Melph cells, the “Fold [Ca2+]i increase evoked by agonist” value was 16.0 ± 6.1 fold. Moreover, the “ATP-increased [Ca2+]i decay kinetics faster in absence than in presence of extracellular Ca2+” value in [1] (MCF-7/ADR and MCF-7/C4 cells, EGTA vs standard buffer) is at least 60%. Besides, the “[Ca2+]i increase when applied following TG” value in [1] (MCF-7/C4, MCF-7/VP and MCF-7/Ad-Vp cells) is “modest and transient”. Besides, the “ATP-increased [Ca2+]i decay kinetics faster in Ca2+-free conditions” value in assay [1] (MCF-7 and MDA-MB-231 wt cells, EGTA vs standard buffer) was at most 40%. Further, in assay [1] (MCF-7 wt and MCF-7/ADR cells), the “Ca2+ response evoked when applied following TG” value was “failed to evoke”.

On to `O=c1c(-c2ccc(O)cc2)coc2cc(O)cc(O)c12` [GEN, genistein], for which, in [1], the “Effect on decay kinetics of ATP-evoked response” value was “not affected” and the “Effect of acute pre-treatment on ATP-induced [Ca2+]i responses” value is reported as “did not affect”.

For `CCCN(CCC)S(=O)(=O)c1ccc(C(=O)O)cc1` [PRO, probenecid], in [1], the “Effect on decay kinetics of ATP-evoked response” value was “not affected” and the “Effect of acute pre-treatment on ATP-induced [Ca2+]i responses” value was “did not affect”.

Take `C/C=C(/C)C(=O)O[C@H]1C(C)=C2[C@H]([C@@H]1OC(=O)CCCCCCC)[C@@](C)(OC(C)=O)C[C@H](OC(=O)CCC)[C@@]1(O)[C@H]2OC(=O)[C@@]1(C)O` [TG, thapsigargin]: the “Fold [Ca2+]i increase evoked by agonist” value with MCF-7 wt cells is given as 2.8 ± 0.5 fold; in the assay with MDA-MB-231 cells, 3.5 ± 0.9 (n = 3) fold; in the assay on MCF-7/ADR cells, 2.7 ± 0.7 fold; in the assay with MCF-7/AdVp cells, 2.4 ± 0.7 fold; in the assay on MCF-7/VP cells, 1.5 ± 0.1 (n = 6) fold; in the assay with MCF-7/C4 cells, 3.4 ± 0.8 (n = 7) fold. Moreover, in [1] (all DR clones and MDA-MB-231 wt, except MCF-7 wt and MCF-7/VP), the “[Ca2+]i increase when applied after ATP” value is “able to increase”. Further, in assay [1] (all clones, applied as the first drug), the “Fold increase in [Ca2+]i” value is around 3 fold. Moreover, the results for the “Induced [Ca2+]i increase compared with C6 parental cells” value in assay [2], in assay [3] and in assay [4] were “greater”, “much reduced response” and “much reduced response”, respectively. For the same compound, in the assay on C6 DR clones A, B and E, the “[Ca2+]i decay kinetics after stimulation, compared with wild type cells” value is recorded as “comparable or faster”.

For the compound `O=c1ccn([C@@H]2O[C@H](COP(=O)(O)OP(=O)(O)OP(=O)(O)O)[C@@H](O)[C@H]2O)c(=O)[nH]1` [UTP], the “Fold [Ca2+]i increase evoked by agonist” value in the assay on MCF-7 wt cells is 6.0 ± 1.3 fold; in the assay with MCF-7/ADR cells it was 2.2 ± 0.3 fold; with MCF-7/AdVp cells, 3.7 ± 0.8 fold; with MCF-7/VP cells it was 5.2 ± 1.9 fold; with MCF-7/Melph cells, 3.7 ± 0.3 fold.

Turning to `COc1cccc2c1C(=O)c1c(O)c3c(c(O)c1C2=O)C[C@@](O)(C(=O)CO)C[C@@H]3O[C@H]1C[C@H](N)[C@H](O)[C@H](C)O1` [adriamycin], the results for the “Fold resistance (dose to kill 50% of DR cells vs wt, DS cells)” value in assay [5], in assay [6] and in assay [7] were 7 fold, 33 fold and 400 fold, respectively.

Turning to α-thrombin, the “Fold [Ca2+]i increase evoked by agonist” value with MCF-7 wt cells is 2.8 ± 0.1 (n = 3) fold; in the assay with MDA-MB-231 cells it was 13.5 ± 5.1 fold; with MCF-7/ADR cells, 2.8 ± 1.1 (n = 3) fold; in the assay with MCF-7/C4 cells, 3.3 ± 0.3 (n = 3) fold.

Source of the values: patent US7416893B2, “Methods for diagnosing drug-resistant cancer cells or for identifying chemotherapeutic agents by measuring anomalous intracellular ion and/or second messenger dynamics” (Atto Bioscience, priority 2002, dated 2008).
